# Measured values: ChEMBL document CHEMBL1649268, “Comparative in vitro activity profile of oritavancin against recent gram-positive clinical isolates” (2009)
# Experiments:
# Assay type in all cases: functional
# Staphylococcus aureus [1] = assay: Antimicrobial activity against Staphylococcus aureus clinical isolates assessed as percent susceptible isolates by broth microdilution method
# Staphylococcus aureus [2] = assay: Antimicrobial activity against oxacillin-susceptible Staphylococcus aureus clinical isolates by broth microdilution method
# Staphylococcus aureus [3] = assay: Antimicrobial activity against oxacillin-resistant Staphylococcus aureus clinical isolates assessed as percent susceptible isolates by broth microdilution method
# Staphylococcus aureus [4] = assay: Antimicrobial activity against oxacillin-susceptible Staphylococcus aureus clinical isolates assessed as resistant isolates by broth microdilution method
# [5] = test system: Staphylococcus haemolyticus; assay: Antimicrobial activity against oxacillin-resistant Staphylococcus haemolyticus clinical isolates assessed as resistant isolates by broth microdilution method
# [6] = test system: Staphylococcus haemolyticus; assay: Antimicrobial activity against Staphylococcus haemolyticus clinical isolates by broth microdilution method
# [7] = test system: Staphylococcus haemolyticus; assay: Antimicrobial activity against oxacillin-susceptible Staphylococcus haemolyticus clinical isolates assessed as resistant isolates by broth microdilution method
# [8] = test system: Staphylococcus haemolyticus; assay: Antimicrobial activity against Staphylococcus haemolyticus clinical isolates assessed as resistant isolates by broth microdilution method
# Staphylococcus aureus [9] = assay: Antimicrobial activity against Staphylococcus aureus clinical isolates by broth microdilution method
# [10] = test system: Staphylococcus epidermidis; assay: Antimicrobial activity against oxacillin-resistant Staphylococcus epidermidis clinical isolates by broth microdilution method
# Staphylococcus aureus [11] = assay: Antimicrobial activity against oxacillin-susceptible Staphylococcus aureus clinical isolates assessed as percent susceptible isolates by broth microdilution method
# [12] = test system: Staphylococcus epidermidis; assay: Antimicrobial activity against oxacillin-susceptible Staphylococcus epidermidis clinical isolates assessed as percent susceptible isolates by broth microdilution method
# [13] = test system: Staphylococcus haemolyticus; assay: Antimicrobial activity against oxacillin-resistant Staphylococcus haemolyticus clinical isolates by broth microdilution method
# [14] = test system: Staphylococcus haemolyticus; assay: Antimicrobial activity against Staphylococcus haemolyticus clinical isolates assessed as percent susceptible isolates by broth microdilution method
# [15] = test system: Staphylococcus haemolyticus; assay: Antimicrobial activity against oxacillin-susceptible Staphylococcus haemolyticus clinical isolates assessed as percent susceptible isolates by broth microdilution method
# [16] = test system: Staphylococcus epidermidis; assay: Antimicrobial activity against Staphylococcus epidermidis clinical isolates by broth microdilution method
# [17] = test system: Staphylococcus haemolyticus; assay: Antimicrobial activity against oxacillin-resistant Staphylococcus haemolyticus clinical isolates assessed as percent susceptible isolates by broth microdilution method
# [18] = test system: Staphylococcus epidermidis; assay: Antimicrobial activity against Staphylococcus epidermidis clinical isolates assessed as percent susceptible isolates by broth microdilution method
# [19] = test system: Staphylococcus haemolyticus; assay: Antimicrobial activity against oxacillin-susceptible Staphylococcus haemolyticus clinical isolates by broth microdilution method
# Staphylococcus aureus [20] = assay: Antimicrobial activity against oxacillin-resistant Staphylococcus aureus clinical isolates by broth microdilution method
# [21] = test system: Staphylococcus epidermidis; assay: Antimicrobial activity against Staphylococcus epidermidis clinical isolates assessed as resistant isolates by broth microdilution method
# Staphylococcus aureus [22] = assay: Antimicrobial activity against oxacillin-resistant Staphylococcus aureus clinical isolates assessed as resistant isolates by broth microdilution method
# [23] = test system: Staphylococcus epidermidis; assay: Antimicrobial activity against oxacillin-resistant Staphylococcus epidermidis clinical isolates assessed as resistant isolates by broth microdilution method
# Staphylococcus aureus [24] = assay: Antimicrobial activity against Staphylococcus aureus clinical isolates assessed as resistant isolates by broth microdilution method
# [25] = test system: Staphylococcus epidermidis; assay: Antimicrobial activity against oxacillin-susceptible Staphylococcus epidermidis clinical isolates by broth microdilution method
# [26] = test system: Staphylococcus epidermidis; assay: Antimicrobial activity against oxacillin-susceptible Staphylococcus epidermidis clinical isolates assessed as resistant isolates by broth microdilution method
# [27] = test system: Staphylococcus epidermidis; assay: Antimicrobial activity against oxacillin-resistant Staphylococcus epidermidis clinical isolates assessed as percent susceptible isolates by broth microdilution method
compound,measurement,setting,value
Cc1onc(-c2ccccc2)c1C(=O)N[C@@H]1C(=O)N2[C@@H]1SC(C)(C)[C@@H]2C(=O)O [OXACILLIN],Activity,Staphylococcus aureus [1],46.2%
same,MIC90,Staphylococcus aureus [2],0.5 µg/mL
same,Activity,Staphylococcus aureus [3],0%
same,Percent of isolates resistant,Staphylococcus aureus [4],0%
same,Activity,[5],100%
same,MIC90,[6],> 8 µg/mL
same,Activity,[7],0%
same,Resistant isolates,[8],73.2%
same,MIC90,Staphylococcus aureus [9],> 8 µg/mL
same,MIC90,[10],> 8 µg/mL
same,Activity,Staphylococcus aureus [11],100%
same,Activity,[12],100%
same,MIC90,[13],> 8 µg/mL
same,Activity,[14],26.8%
same,Activity,[15],100%
same,MIC90,[16],> 8 µg/mL
same,Activity,[17],0%
same,Activity,[18],27.3%
same,MIC90,[19],0.25 µg/mL
same,MIC90,Staphylococcus aureus [20],> 8 µg/mL
same,Percent of isolates resistant,[21],72.7%
same,Percent resistant isolates,Staphylococcus aureus [22],100%
same,Percent of isolates resistant,[23],100%
same,Percent resistant isolates,Staphylococcus aureus [24],53.8%
same,MIC90,[25],0.12 µg/mL
same,Percent of isolates resistant,[26],0%
same,Activity,[27],0%
